These results are taken from paper PMC8080530, “Glucocorticoid receptor Thr524 phosphorylation by MINK1 induces interactions with 14-3-3 protein regulators” (The Journal of Biological Chemistry, 2021).

Test [1] concerns the target T1, 14-3-3ζ (Homo sapiens, UniProt P63104).
T1 construct: Full-length expression and purification of 14-3-3; made in house; host or cells: E. coli BL21 (DE3)STAR
T1 sequence (P63104 1-245): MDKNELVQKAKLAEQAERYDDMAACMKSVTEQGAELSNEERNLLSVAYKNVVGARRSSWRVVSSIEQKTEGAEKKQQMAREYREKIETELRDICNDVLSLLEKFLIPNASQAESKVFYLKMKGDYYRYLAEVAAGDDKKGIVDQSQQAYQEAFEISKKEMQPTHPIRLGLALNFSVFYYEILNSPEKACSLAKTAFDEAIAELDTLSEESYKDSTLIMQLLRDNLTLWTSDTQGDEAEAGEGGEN
As to the kind of experiment: FP assay with GR phosphorylated peptides and 14-3-3ζ. The test is classed as binding. Conditions: for Kd: triplicates. The essentials:
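Fluorescence polarization (ex 485/em 520 nm) was read in triplicate after 30-min RT incubation. Binding data were fitted to a standard Hill equation and expressed in mP units. The dynamic range (ΔmP) is the difference between bound and free peptide signals.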

Test [2] has as its target T2, 14-3-3σ (Homo sapiens, UniProt P31947).
T2 construct: Full-length expression and purification of 14-3-3; made in house; host or cells: E. coli BL21 (DE3)STAR
T2 sequence (P31947 1-248): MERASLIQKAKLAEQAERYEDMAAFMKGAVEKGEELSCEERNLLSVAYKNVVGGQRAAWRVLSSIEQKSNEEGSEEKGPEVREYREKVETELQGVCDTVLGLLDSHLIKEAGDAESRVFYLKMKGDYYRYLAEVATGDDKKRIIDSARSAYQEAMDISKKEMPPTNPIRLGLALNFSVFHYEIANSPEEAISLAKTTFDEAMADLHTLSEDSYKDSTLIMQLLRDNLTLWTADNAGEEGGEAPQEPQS
As to the kind of experiment: FP assay with GR phosphorylated peptides and 14-3-3σ. The test is classed as binding. Conditions: FITC-labeled peptide titrated with 14-3-3σ, 30 min RT, triplicates. The procedure:
After 30-min incubation at RT, the plates were read on a plate reader PHERAstar (BMG LABTECH GmbH) for FP signal using […] and standard excitation (485 nm) and emission (520 nm). Measurements were performed as triplicates. Binding data were fit to a standard Hill equation using the software Genedata Screener. The figures were made using the software GraphPad Prism 8. FP data were expressed as millipolarization (mP) units, and the dynamic range (ΔmP) was the difference of the signals from the bound peptide and free peptide. Errors are the standard error of the fit.

Test [3] relates to GR–14-3-3 interaction in HEK293 and U2OS cells. Put plainly: Co-IP and far-Western blotting overlay of GR with 14-3-3 after cell stimulation. Conditions: HEK293 and U2OS cells transfected with WT GR, overnight starvation; forskolin 20 µM for 30 min, calyculin A 50 nM for 10 min. The test is classed as cell-based. The procedure: The interaction between the full-length GR and 14-3-3 was investigated in a cellular system to validate the relevance of the peptide studies.
The HEK293 and U2OS cell lines (American Type Culture Collection) were cultured in Dulbecco's modified Eagle's medium, supplemented with 10% fetal bovine serum and 1% penicillin-streptomycin (10,000 U/ml) at 37 °C in a 5% CO2 environment. For the Co-IP assay, 3 × 10^6 cells were seeded in a 15-cm cell culture dish. At 60 to 70% confluence, the HEK293 cells were transiently transfected with a mixture of 6-μg GFP-MINK1 or GFP-GR DNA and 24-μl lipofectamine 2000 in 2-ml Opti-MEM for 24 h. […]
(§1) Cells were collected and lysed in radioimmunoprecipitation assay buffer containing 50-mM Tris-HCl, pH 8, 150-mM NaCl, 1-mM EDTA, 0.1% SDS, 1% Na deoxycholate, and 1% NP-40 supplemented with a protease inhibitor cocktail. After lysis, the concentration of protein was quantified by the Bradford test. […]
(§2) Eluted proteins were resolved on a NuPAGE 4 to 12% Bis-Tris Protein Gels, 1.0 mm. […] After washing with TBST, the blots were detected using an Odyssey CLx Imaging system (LI-COR). […]
Samples containing proteins from the Co-IP assay or GR LBD in vitro phosphorylated were loaded on a NuPAGE 4 to 12% Bis-Tris Protein Gels, 1.0 mm, and separated. […] After washing with TBST, the blots were detected using an Odyssey CLx Imaging system (LI-COR). […]

Test [4] concerns MINK1–14-3-3 interaction in HEK293 cells. Put plainly: Co-IP and far-Western blotting overlay of MINK1 with 14-3-3 after cell stimulation. The test is classed as cell-based. To be noted: HEK293 cells transfected with GFP-MINK1; forskolin 20 µM for 30 min, calyculin A 50 nM for 10 min. The procedure:
The HEK293 and U2OS cell lines (American Type Culture Collection) were cultured in Dulbecco's modified Eagle's medium, supplemented with 10% fetal bovine serum and 1% penicillin-streptomycin (10,000 U/ml) at 37 °C in a 5% CO2 environment. For the Co-IP assay, 3 × 10^6 cells were seeded in a 15-cm cell culture dish. At 60 to 70% confluence, the HEK293 cells were transiently transfected with a mixture of 6-μg GFP-MINK1 or GFP-GR DNA and 24-μl lipofectamine 2000 in 2-ml Opti-MEM for 24 h. At 60 to 70% confluence, the U2OS cells were transiently transfected with a mixture of 8-μg GFP-MINK1 or GFP-GR and/or FLAG-MINK1 DNA and 32-μl X-tremeGENE 9 DNA in 2 ml Opti-MEM for 24 h. Stimulation with forskolin, H89, IGF-1, and PI303 was preceded by a cell starvation step where the cells were incubated with DMEM without supplements overnight. […]
as §1, §2

Read-outs that look alike come from different tables or passages of the source. Non-standard residues stand in square brackets, D forms with d. Residues, ends and D or L forms follow the SMILES beside them. pT = C[C@@H](OP(=O)(O)O)[C@H](N)C(=O)O; pS = N[C@@H](COP(=O)(O)O)C(=O)O

Broadly, the Kd is the equilibrium constant for the complex coming apart. For `CC[C@H](C)[C@H](NC(=O)[C@H](CCCCN)NC(=O)[C@H](CCCCN)NC(=O)[C@H](CCCCN)NC(=O)[C@@H](NC(=O)[C@H](CCCCN)NC(=O)[C@H](CCCNC(=N)N)NC(=O)[C@H](C)NC(=O)[C@H](CCC(=O)O)NC(=O)[C@H](CC(C)C)NC(=O)[C@@H](N)CC(N)=O)[C@@H](C)OP(=O)(O)O)C(=O)N[C@@H](CCCCN)C(=O)NCC(=O)O` [GR_pT493] (H-NLEARK[pT]KKKIKG-OH; N-terminus assumed), the Kd in test [1] (FITC-labeled peptide 60 nM (monophosphorylated) or 10 nM (doubly phosphorylated) titrated with 14-3-3ζ, 30 min RT, Hill fit, read-out: Kd with 14-3-3ζ by FP) was over 150000 nM; in test [2], over 150 µM.
As for `CC[C@H](C)[C@H](NC(=O)[C@@H](NC(=O)[C@H](CCCCN)NC(C)=O)[C@@H](C)O)C(=O)N[C@H](C(=O)N1CCC[C@H]1C(=O)N[C@@H](C)C(=O)N[C@H](C(=O)N[C@@H](CC(C)C)C(=O)N1CCC[C@H]1C(=O)N[C@@H](CCC(N)=O)C(=O)N[C@@H](CC(C)C)C(=O)N[C@H](C(=O)N1CCC[C@H]1C(=O)NCC(=O)NCC(=O)NCC(=O)NCC(=O)NCC(=O)N[C@@H](CCCNC(=N)N)C(=O)N[C@@H](CO)C(=O)N[C@@H](Cc1ccc(O)cc1)C(=O)N[C@@H](CCCNC(=N)N)C(=O)N[C@@H](CCC(N)=O)C(=O)N[C@@H](CO)C(=O)N[C@@H](COP(=O)(O)O)C(=O)N[C@@H](C)C(=O)N[C@@H](CC(N)=O)C(=O)N[C@@H](CC(C)C)C(=O)N[C@@H](CC(C)C)C(=O)N[C@@H](CS)C(=O)N[C@@H](Cc1ccccc1)C(=O)O)[C@@H](C)O)[C@@H](C)OP(=O)(O)O)C(C)C` [GR_pT524-pS617] (Ac-KTIVPA[pT]LPQLTPGGGGGRSYRQS[pS]ANLLCF-OH), the Kd stood at 18 nM in test [1] (FP, doubly phosphorylated 31-mer peptides, read-out: Kd with 14-3-3ζ (values in nM)) and 0.053 ± 0.026 µM in test [2]. Besides, the “fold improvement of binding affinity with 14-3-3ζ compared with the individual monomers” value in test [1] (avidity effect of dimeric peptide) worked out at 1000 fold.
For the compound `COC[C@@H]([C@H](O)[C@H](O)C(=O)NCC[C@H](C)c1nc(/C=C/C[C@@H]2O[C@]3(C[C@@H](O)[C@@H]2C)O[C@H]([C@H](C[C@H](O)[C@H](C)[C@H](O)[C@H](C)/C=C(C)/C(C)=C/C=C/C(C)=C\C#N)OC)[C@H](OP(=O)(O)O)C3(C)C)co1)N(C)C` [calyculin A], in test [3], the “GR interaction with 14-3-3 proteins upon stimulation” value is “GR interacted with 14-3-3 proteins”. Besides, the “MINK1 interaction with 14-3-3 upon stimulation” value in test [4] is “MINK1 also interacts with 14-3-3”.
On to `C=C[C@@]1(C)CC(=O)[C@]2(O)[C@@]3(C)[C@@H](O)CCC(C)(C)[C@@H]3[C@H](O)[C@H](OC(C)=O)[C@@]2(C)O1` [forskolin], for which the “GR interaction with 14-3-3 proteins upon stimulation” value in test [3] is “GR interacted with 14-3-3 proteins”. Further, the “MINK1 interaction with 14-3-3 upon stimulation” value in test [4] was “MINK1 also interacts with 14-3-3”.
